Source: patent US7846935B2, “Furo[3,2-B]pyrrol-3-one derivatives and their use as cysteinyl proteinase inhibitors” (Amura Therapeutics Limited, priority 2006, dated 2010)

What was measured:
Plasma incubations = type: in vitro ADME; details: 37° C., 25 μM
Experimental: Aliquots were removed at 2 and 60 minutes and quenched with an equal volume of cold acetonitrile. After mixing vigorously, the precipitated protein matter was removed by filtration (Multiscreen Solvinert filter plates, Millipore, Bedford, Mass., USA) and the filtrate analysed by reverse phase HPLC with mass spectrometric detection, using single ion monitoring of the [M+H]^+ species. Metabolic turnover was determined by comparison of peak areas from the ion chromatograms of the parent compound at 2 and 60 minutes and expressed as percent remaining at 1 hour.

human osteoclasts = details: human osteoclast, literature value; cited from earlier work
[1] = Liver microsomal incubations; type: in vitro ADME; details: human liver microsomes, 25 μM, NADPH
Experimental: All liver microsome incubations were carried out in 50 mM potassium phosphate buffer at pH 7.4, with a final microsomal protein concentration of 0.5 mg/mL. […] In brief, compounds were added to the incubation buffer along with the liver microsomes and incubated at 37° C. for 10 minutes. The reaction was then initiated by the addition of NADPH, previously dissolved in incubation buffer, to give a final concentration of 1 mM and re-incubated at 37° C. Aliquots were removed at 2 and 60 minutes and quenched with an equal volume of cold acetonitrile. After mixing vigorously, the precipitated protein matter was removed by filtration (Multiscreen Solvinert filter plates, Millipore, Bedford, Mass., USA) and the filtrate analysed by reverse phase HPLC with mass spectrometric detection, using single ion monitoring of the [M+H]^+ species. Metabolic turnover was determined by comparison of peak areas from the ion chromatograms of the parent compound at 2 and 60 minutes and expressed as percent remaining at 1 hour.

CC(C)C[C@H](NC(=O)c1ccc(C(C)(C)C)cc1)C(=O)N1CC[C@H]2OCC(=O)[C@H]21 [prior art compound 23, reference compound]
Human Plasma Stability % rem. @ 1 h (Plasma incubations): 75%
Cell-based % Inh. @ 1 μM Human (Lit.) (human osteoclasts): Lit. 60%
HLM % rem. @ 1 h [1]: 70%
